This is an account of results in patent US6632805B1, “Methods for using water-stabilized organosilanes” (Emory University, priority 1996, dated 2003).

SMILES strings stand for the structures.

Data set [1] is described as follows: Solubility in water and other solvents.
Data set [2] in a line: Stability in water judged by appearance of the preparation (clear/hazy).

For `CO[Si](CCCCl)(OC)OC` [Chloropropyl trimethoxysilane], the “Appearance after addition to water containing pentaerythritol” value in data set [1] (water containing pentaerythritol, after standing overnight) is “clear solution”. In data set [1] (water, no stabilizer), the Solubility in water result was “insoluble”.

In the case of `CCCCCCCCCCCCCCCCCC[N+](C)(C)CCC[Si](OC)(OC)OC.[Cl-]` [none], the “Stability (appearance of the preparation)” value is listed as “hazy” in data set [2] (initial pH 1.15, after 1 wk.); “hazy” in data set [2] (initial pH 2.0, after 1 mo.); “clear” in data set [2] (initial pH 2.0, after 1 wk.); “hazy” in data set [2] (initial pH 5.7, after 1 mo.); “clear” in data set [2] (initial pH 5.7, after 1 wk.); “hazy” in data set [2] (initial pH 6.5, after 1 mo.). Also, the “Stability (appearance of the preparation)” value in data set [2] (initial pH 6.5, after 1 wk.) is “clear”; in data set [2] (initial pH 8.5, after 1 wk.) it was “hazy/gel”.
